In patent US9517243B2, “Beta-mannosylceramide and stimulation of NKT cell anti-tumor immunity” (The United States of America, as represented by the …, priority 2010, dated 2016):

Assays:
CT26 lung metastasis = assay: In vivo lung metastasis assay, CT26 colon carcinoma; parameters: species or system BALB/c mice; settings: for Tumor protection in IFN-γ knockout mice: IFN-γ−/− BALB/c, 50 pmoles, FIG. 9A; for Effect of NOS inhibition (L-NAME vs D-NAME) on tumor protection: WT mice, 50 pmoles glycolipid, 0.2 mg L-NAME i.p., FIG. 6, 10A; for Rank order of tumor protection: dose of 50 pmoles
Procedure: In vivo lung metastasis assay. 5×10^5 CT26 cells in 0.2 ml PBS were injected i.v. into the tail vein. Glycolipid or vehicle control (0.00025% Tween 20) was injected i.p. (in 0.2 ml PBS) within one hour after tumor challenge. Mice were sacrificed 12-16 days after tumor challenge, and lungs were stained and fixed and metastases were enumerated as previously described (Park, J. M., et al., International J. of Cancer, 114:80-87 (2004)). The same protocol was used for the B16F10 cell line, except that lungs were perfused with PBS instead of ink before removal.
For CD8^+T and NK cell depletion, mice were treated with anti-CD8 (200 μg/injection), anti-asialo GM1 (25 μl/injection), or control antibodies 1 day prior to tumor challenge, the day of challenge, and 5 and 10 days following tumor challenge. CD8^+T and NK cell depletion of >90% was confirmed by flow cytometric staining for CD8 (clone 53-6.7, BD Biosciences, Rockville, Md.) and pan-NK cell marker (clone DX5, eBioscience, San Diego, Calif.) at the conclusion of the experiment. For Gr-1^+ cell depletion, mice were injected i.p. with 100, 50, or 1 μg anti-Gr-1 antibody, 16 and 40 hours after tumor challenge. CD11b^+Gr-1^high cell depletion of >99% and CD11b^+Gr-1^intermediate cell depletion of >80% by 100 μg of anti-Gr-1 antibodies, was confirmed by flow cytometric staining for CD11b (clone M1/70, eBioscience), Gr-1 (clone RB6-8C5, BD Biosciences), Ly-6C (clone AL-21, BD Biosciences) and Ly6G. (clone 1A8, BD Biosciences). Where indicated, mice received 0.2 mg L-NAME or D-NAME i.p. twice per day on the day of tumor challenge, the day after tumor challenge, and once daily for 2 weeks after tumor injection. Blockade of TNF-α was achieved by administration of 100 μg of etanercept every other day, beginning immediately following tumor challenge, per the method of Fichtner-Feigl, S., et al., Cancer Res., 68:3467-3475 (2008). For PPARγ inhibition, mice were treated 0.15 mg/ml GW9662 (200 μL i.p.) or vehicle control (0.5% DMSO in PBS) immediately following tumor challenge, and then 30 minutes prior to glycolipid administration, via the method of Coste, A., et al., J. Immunol., 180:4939-4947 (2008).

[1] = system: IFN-γ, IL-4, IL-13, IL-12 (p70), and TNF-α in plasma; assay: In vivo cytokine assay (plasma, multiplex); parameters: species or system BALB/c mice; settings: 0-24 hours
Procedure: FIGS. 8A-8E show graphs where the cytokine production induced by the glycolipid panel was tested in vivo. BALB/c mice were challenged with CT26 (5×10^5) i.v. followed by 50 pmoles of glycolipid or vehicle control i.p. at time 0. Mice were bled retroorbitally at 0, 3, 6, 12, and 24 hours, and the amount of IFN-γ (8A), TNF-α (8B), IL-4 (8C), IL-12 (p70) (8D), and IL-13 (8E) in plasma was determined. Each data point represents mean±SD of triplicates. […] Little cytokine production was detected following OCH and AH04-2 administration. β-ManCer induced very little cytokine production except for some IL-12 and TNF-α.
In vivo cytokine assay. The concentration of IFN-γ, IL-4, IL-13, IL-12 (p70), and TNF-α in plasma samples was determined by MILLIPLEX cytokine multiplex immunoassay kit (Millipore, Billerica, Mass.) using a Bio-Plex system (Bio-Rad, Hercules, Calif.) according to manufacturer's instructions.

BALB/c splenocytes = assay: In vitro cytokine assay (ELISA); type: cell-based, BALB/c mice; settings: 48 hours, ELISA; for IFN-γ production in vitro: FIG. 7A; for IL-4 production in vitro: FIG. 7B; for IL-13 production in vitro: FIG. 7C
Procedure: In vitro cytokine assay. Splenocytes (8×10^5/well of 96 well plates) from BALB/c mice were stimulated with glycolipid or solvent control for 48 hours. Supernatants were collected, and the concentration of IFN-γ, IL-4, or IL-13 was determined by ELISA.

iNKT cells = assay: In vitro iNKT activation (CFSE dilution, splenocytes); type: cell-based, mice; settings: 3.5-day stimulation of mouse splenocytes; FIG. 3
Procedure: In vitro iNKT activation. Splenocytes were harvested from mice (n=3), and erythrocytes were depleted with ACK Lysis Buffer (Lonza, Walkersville, Md.). Cells were labeled with 0.1 μM CFSE (Invitrogen, Carlsbad, Calif.) for 15 minutes at room temperature. Labeled cells (4×10^6 cells/well of 24-well plate) were stimulated for 3.5 days with glycolipid or vehicle control. At the end of the culture, cells were harvested and stained with PBS57-loaded CD1d tetramer (NIH Tetramer Facility) and anti-CD3 (clone 145-2C11, Biolegend). The fluorescence of stained cells was measured by FACSCalibur (BD Biosciences), and data were analyzed by Flowjo (Tree Star, Inc., Ashland, Oreg.).

activated NKT cells = assay: Anergy: re-stimulation of splenocytes one month after in vivo treatment; parameters: species or system mice
Procedure: FIG. 13A is a graph showing splenocyte proliferation measured by ^3H-thymidine incorporation during the final 8 hours of a 72-hour culture after being re-stimulated in culture. Pretreatment with α-GalCer induces anergy but pretreatment with β-ManCer induces much less anergy.
FIG. 13B is a graph showing the amount of IFN-γ produced by the splenocyte culture after 48 hours of re-stimulation.
It is known that α-GalCer induces strong anergy of activated NKT cells for over a month after in vivo stimulation. […] Mice were treated with α-GalCer, β-ManCer, or vehicle, and one month later, splenocytes were re-stimulated, and the degree of activation was measured by proliferation and IFN-γ production.

Row | Structure (SMILES) | Tumor protection in IFN-γ knockout mice (CT26 lung metastasis) | Effect of NOS inhibition (L-NAME vs D-NAME) on tumor protection (CT26 lung metastasis) | Rank order of tumor protection (CT26 lung metastasis; FIG. 2D) | IL-4 in plasma ([1]; 50 pmoles i.p., FIG. 8C) | IL-13 in plasma ([1]; 50 pmoles i.p., FIG. 8E) | IFN-γ production in vitro (BALB/c splenocytes) | IL-4 production in vitro (BALB/c splenocytes) | IL-13 production in vitro (BALB/c splenocytes) | Cytokine production in vivo (overall) ([1]; 50 pmoles i.p.) | Proliferation of iNKT cells (CFSE dilution) (iNKT cells) [%] | Effect of TNF-α blockade (TNF-αR-Fc, etanercept) on protection (CT26 lung metastasis; 100 μg etanercept every other day, FIG. 10C) | Potency relative to β-ManCer (CT26 lung metastasis; results at the 5 pmole dose, FIG. 2D) | IFN-γ in plasma ([1]; 50 pmoles i.p. after CT26 i.v., FIG. 8A) | IFN-γ production on re-stimulation, compared to cells from vehicle-treated mice (activated NKT cells; 48 hours of re-stimulation, FIG. 13B) | Splenocyte proliferation on re-stimulation, compared to cells from vehicle-treated mice (activated NKT cells; re-stimulation with α-GalCer or β-ManCer, 3H-thymidine, 72-hour culture, FIG. 13A)
1 | CCCCC/C=C\C/C=C\CCCCCCCCCC(=O)N[C@@H](CO[C@H]1O[C@H](CO)[C@H](O)[C@H](O)[C@H]1O)[C@H](O)[C@H](O)CCCCCCCCCCCCCC [C20:2, reference compound] | completely failed to induce any tumor protection | no effect | similarly protective | increased | increased | lower IFN-γ level | higher amounts | higher amounts | – | – | – | – | – | – | –
2 | CCCCCCCCCCCCCCCCCCCCCCCC(=O)N[C@@H](COC1OC(CO)C(O)C(O)C1O)[C@H](O)[C@H](O)CCCCC (some centres unmarked) [OCH] | – | – | significantly less tumor killing | – | – | lower IFN-γ level | higher amounts | higher amounts | Much less cytokine production | – | – | – | – | – | –
3 | CCCCCCCCCCCCCCCCCCCCCCCCCC(=O)N[C@@H](CO[C@H]1O[C@H](CO)[C@H](O)[C@H](O)[C@H]1O)[C@H](O)[C@H](O)CCCCCCCCCCCCCC [α-GalCer, α-galactosylceramide, reference compound] | completely failed to induce any tumor protection | no effect | greatest protection | – | – | greatest IFN-γ production | – | – | – | 44 | no effect | about a log more potent | most IFN-γ | severely suppressed | severely suppressed
